Experimental data as given in the NIST ThermoML archive (doi:10.1016/j.fluid.2016.09.021).

Conditions: Liquid, Vibrating tube method

CCCCCCC [heptane]
mass density [kg/m3]
Conditions | 293 K | 313 K | 333 K | 353 K | 373 K
2100 kPa | 687.2 | 671.9 | 654.8 | 636.1 | 616.9
3000 kPa | 688.1 | 672.9 | 656 | 637.6 | 618.6
4000 kPa | 688.9 | 673.9 | 657.7 | 639.1 | 620.3
5000 kPa | 689.8 | 674.8 | 658.4 | 640.4 | 622
10000 kPa | 694 | 679.4 | 663.9 | 647.1 | 629.9
20000 kPa | 701.8 | 688 | 673.8 | 658.5 | 643.2
30000 kPa | 708.7 | 695.4 | 682.3 | 668 | 654.1
40000 kPa | 714.8 | 702.2 | 689.5 | 676.7 | 663.6
49900 kPa | 720.8 | 708.5 | 696.5 | 684.5 | 672
59900 kPa | 726.4 | 714.3 | 703.1 | 691.3 | 679.6
69900 kPa | 731.6 | 720 | 708.9 | 697.9 | 686.7
79900 kPa | 736.8 | 725.2 | 714.5 | 703.8 | 693.3
89900 kPa | 741.5 | 730.3 | 720 | 709.7 | 699.4
99900 kPa | 746.1 | 735.1 | 725.2 | 715 | 705.2
109900 kPa | 750.6 | 739.9 | 729.8 | 720.3 | 710.7
119900 kPa | 754.9 | 744.3 | 734.7 | 725.3 | 716
129900 kPa | 759.2 | 748.7 | 739.3 | 730.1 | 720.9
134900 kPa | 761.2 | 751 | 741.4 | 732.4 | 723.3
137400 kPa | 762.2 | 751.9 | 742.6 | 733.5 | 724.5
